# Source: patent US6040331A, “Nerve cell protective agents” (Mochida Pharmaceutical Co., Ltd., priority 1996, dated 2000)
# What was measured:
# [1] = system: cerebral ischemic animal models; settings: in vivo; cited from earlier work
# [2] = system: pyramidal cells in the hippocampus CA1 region; test: Effectiveness in gerbil model of delayed neuronal death (damage score, 4 min ischemia); assay type: in vivo; settings: carotid arteries 5 min before ischemia, score 0-4
# Method: (§1) Specifically, the cervical part of a gerbil under anesthesia by halothane inhalation was incised along the median line to expose the carotid artery on both sides, which were occuluded with clips for 4 min and thereafter brought back to patency. After suturing the incised part, the anesthetization was turned off and the animal was brought back to keeping under normal condition. Three days after loading of cerebral ischemia, the gerbil was anesthetized by administering pentobarbital, fixed by transcardiac formalin perfusion and had the brain isolated. A coronary slice including the fimbria hippocampi was prepared from the isolated brain and stained with Cresyl Violet. The pyramidal cells in the hippocampus CA1 region were examined under an optical microscope and the degree of damage was rated by the following scores: 0, no damage; 1, slight damage; 2, moderate damage; 3, significant damage; 4, total damage. Each test compound was administered through the carotid arteries 5 min before ischemia.
# mice (ICR) = test: Acute toxicity test; assay type: in vivo, mouse; settings: 100 mg/kg, intraperitoneal, 7-day observation, 3 animals per group
# hippocampus = settings: Bode et al., cited from earlier work
# [3] = system: neurons isolated from the cerebrum; test: Naturally occurring neuronal death suppressing action (serum-free cultivation, Crystal Violet); assay type: cell-based, embryonic day 16 rats; settings: Rattus norvegicus, Neuron, 72 h; 1.0 μg/ml; serum-free, 3 days; read-out: Suppression of Naturally Occurring Neuronal Death
# Method: The action of compounds to suppress the naturally occurring death of neurons was evaluated in terms of their effectiveness in suppressing or inhibiting the naturally occurring death of neurons as induced by exposing cultured neurons to serum-free cultivation conditions. An experiment was run by a method adapted from the method of Shimojo et al., Neurosci. Lett., 151, 170, 1993. Specifically, neurons were isolated from the cerebrum of embryonic day 16 rats in the usual manner, suspended in a DMEM/F12 medium containing 1% fetal bovine serum, seeded onto a polylysine-coated culture plate at a density of 5×10^4 cells per square centimeter and cultivated at 37° C. in 95% air+5% CO2. After one day of culture, the medium was replaced with a serum-free medium containing a compound to be tested and the cultivation was continued for 3 more days. Subsequently, the cells were fixed with 1% glutaraldehyde and their number was determined by calorimetric quantification using Crystal Violet (Anal. Biochem., 182, 16-19, 1989). The percent suppression of neuronal death by the test compound was determined by the following formula:
# (§2) 100×(ODtest-ODcontrol)/(ODnormal-ODcontrol) (%)
# where ODtest is the number of cells (absorbance) in the group of addition of test compound after serum removal, ODcontrol is the number of cells (absorbance) in a control group after serum removal, and ODnormal is the number of cells (absorbance) in a control (normal) group without serum removal.
# [4] = system: neurons isolated from the cerebrum; test: Veratrine-induced neuronal death suppressing action (MTT); assay type: cell-based, embryonic day 16 rats; settings: Rattus norvegicus, Neuron; veratrine 0.35 mM; MTT after 24 h; probit method; read-out: IC50 (50% suppression of veratrine-induced neuronal death)
# Method: The action of compounds to suppress the death of neurons induced by veratrine was evaluated in terms of their effectiveness in suppressing the neuronal death as induced by direct addition of veratrine. An experiment was run by a method adapted from the method of Powells et al., J. Pharmacol. Exp. Therapeutics, 255, 1117, 1987. Specifically, neurons were isolated from the cerebrum of embryonic day 16 rats in the usual manner, suspended in a MEM medium containing 10% fetal bovine serum, seeded onto a polylysine-coated culture plate at a density of 2.5×10^5 cells per square centimeter and cultivated at 37° C. in 95% air+5% CO2. Starting on the fifth day of cultivation, treatment was conducted with 10 μM of cytosine arabinoside for 2 days and the cultivation was continued until the 12th day, when a test was run as follows. The cells were treated with a buffer solution containing veratrine (0.35 mM) and a test compound, replaced in a serum-containing medium and cultivated for another 24 h. Subsequently, the number of viable cells was determined by calorimetric quantification using 3-(4,5-dimethylthiazol-2-yl)-2,5-diphenyltetrazolium bromide (MTT). The percent suppression of neuronal death by the test compound was determined by the following formula:
# as §2
# where ODtest is the number of cells (absorbance) in the group of addition of veratrine+test compound, ODcontrol is the number of cells (absorbance) in a control group of addition of veratrine, and ODnormal is the number of cells (absorbance) in a control (normal) group without addition of veratrine.
# In addition, IC50 values indicating the effectiveness in achieving 50% suppression of neuronal death were calculated by the probit method on the basis of the result from more than one concentration.
# cerebral infarction = test: Effectiveness in rat model of permanent occlusion of middle cerebral artery; assay type: in vivo; settings: 10 mg/kg, tail vein, 10 min after occlusion; 24 h; control 14.7 ± 0.8; mean ± standard error; ** p < 0.01 vs control group
# Text: The therapeutic effect of compounds against cerebral infarction was studied in accordance with the method of Tamura et al., J. Cereb. Blood Flow Metab., 1, 53, 1981.
# Specifically, a hole was made transorbitally in part of the cranial bone of a rat under anesthesia by halothane inhalation to expose the origin of the middle cerebral artery. Then, using a bipolar coagulator, the middle cerebral arteries were burnt to coagulate for permanent occlusion. The operative site was sutured and after the anesthetization was turned off, the animal was brought back to keeping under normal condition. Twenty-four hours after loading of cerebral ischemia, the rat was decapitated and the brain was isolated. The isolated brain was cut at a predetermined site to prepare five coronary slices. The infarct area of each section was rendered visible by staining with 2,3,5-triphenyltetrazolium chloride (TTC) and quantitated with an image analyzer. A test compound was administered through the tail vein 10 min after the occlusion of the middle cerebral arteries and comparison was made with a control group administered with a solvent alone.
# [5] = system: formalin induced pain reaction; test: Effectiveness in formalin induced paw pain test; assay type: in vivo, mouse; settings: for Suppression of pain reaction, Second phase / Suppression of pain reaction, First phase: oral, 30 min before formalin; for Suppression of pain reaction, Second phase: from 10 min to 45 min; for Suppression of pain reaction, First phase: within 10 min after induction
# Method: The effectiveness of compounds in a formalin induced pain test was studied in accordance with the method of Shibata et al., Pain, 38, 347, 1989.
# Specifically, the left hind paw of a mouse was injected subcutaneously with 25 μl of a 0.5% formalin solution and the duration of time for which the mouse licked and bit the treated foot starting just after the injection was measured with a stopwatch; the measured times were integrated for every 5 minutes and recorded. The formalin induction caused a characteristic biphase pain reaction; the pain recognized within 10 min after the induction was categorized as a first-phase pain reaction and the pain recognized from 10 min to 45 min as a second-phase reaction. The test compounds were administered orally 30 min before the injection of formalin. The percent suppression of the formalin induced pain reaction by each test compound was determined by the following formula:
# 100×(PRcontrol-PRtest)/(PRcontrol) (%)
# where PRtest is the time (sec) of pain reaction in a group administered with both formalin and the test compound and PRcontrol is the time (sec) of pain reaction in a control group subjected to formalin induction.
# [6] = system: pyramidal cells in the hippocampus CA1 region; test: Effectiveness in gerbil model of delayed neuronal death (pyramidal cell count, 3 min ischemia); assay type: in vivo; settings: carotid arteries 5 min before ischemia, ischemic control 58 ± 22, non-ischemic 249 ± 10, mean ± standard error, hydrochloride
# Method: as §1, with “The action of compounds to suppress the death of neurons in vivo was studied by the method of Murase et al., Neurosci. Lett., 149, 229, 1993 which was adapted from the method of Kirino et al., Brain Res., 239, 57, 1982. Specifically,” for “Specifically,”, “3” for “4”, “Seven” for “Three”, “counted” for “examined”, “microscope.” for “microscope and the degree of damage was rated by the following scores: 0, no damage; 1, slight damage; 2, moderate damage; 3, significant damage; 4, total damage.”
# [7] = 10 mg/kg, ** p < 0.01 vs ischemic control group
smiles,measurement,setting,value
C[C@]12N[C@H](Cc3ccccc31)c1ccccc12 [dizocilpine],effectiveness in cerebral ischemic animal models (in words),[1],effective
CN1CCN(c2ncc(-c3cc(Cl)cc(Cl)c3Cl)c(N)n2)CC1 [BW619C89],effectiveness in cerebral ischemic animal models (in words),[1],effective
O=c1[nH]c2cc(-n3ccnc3)c([N+](=O)[O-])cc2[nH]c1=O [YM90K],effectiveness in cerebral ischemic animal models (in words),[1],effective
"NC1CCc2c(-c3ccccc3)[nH]c3c(Cl)ccc1c23 (stereo not shown) [Example 86, 5-amino-8-chloro-2-phenyl-1,3,4,5-tetrahydrobenz[cd]indole]",Score of damage to hippocampus CA1,"[2]; 5 mg/kg, ischemic control 2.9 ± 0.3, mean ± standard error (Table 3-1)",1.8 ± 0.1
same,death (acute toxicity),mice (ICR),no case of death was found
CCCN(CCC)C1Cc2c[nH]c3ccc(OC)c(c23)C1 (stereo not shown) [BAY-R-1531],effect on damage to the hippocampus of gerbils after brain ischemia (in words),"hippocampus; Stroke, 21, 1990",effective for damage to the hippocampus of gerbils after brain ischemia
same,dose of protective effect relative to dose altering patterns of behavior (in words),hippocampus; serotonin-like action,the protective effect of the compound was only recognized at a by far higher dose than the one that caused altered patterns of behavior due to a serotonin-like action
"NC1CCc2c(-c3ccccc3)[nH]c3cccc1c23 (stereo not shown) [Example 81, 5-amino-2-phenyl-1,3,4,5-tetrahydrobenz[cd]indole]",Score of damage to hippocampus CA1,"[2]; 10 mg/kg, ischemic control 2.9 ± 0.3, mean ± standard error (Table 3-1)",0.1 ± 0.1
same,inhibition at 1 µg/mL,[3],51%
same,death (acute toxicity),mice (ICR),no case of death was found
same,IC50,[4],3.2 µg/mL
same,Weight of infarction,cerebral infarction,9.3 ± 1.5%
O=C(O)[C@@H]1C[C@H](CP(=O)(O)O)CCN1 (relative stereo) [selphotel],effectiveness in cerebral ischemic animal models (in words),[1],effective
"Cl.Fc1ccccc1-c1[nH]c2cccc3c2c1CCC3N1CCOCC1 (stereo not shown) [Example 232, 2-(2-fluorophenyl)-5-morpholino-1,3,4,5-tetrahydrobenz[cd]indole hydrochloride]",Score of damage to hippocampus CA1,"[2]; 10 mg/kg, ischemic control 3.5 ± 0.4, mean ± standard error (Table 3-2)",2.5 ± 0.7
same,"Suppression of pain reaction, Second phase",[5]; 200 mg/kg,100%
same,"Suppression of pain reaction, First phase",[5]; 200 mg/kg,51%
"Cl.Fc1ccccc1-c1[nH]c2cccc3c2c1CCC3N1CCOCC1 (single isomer, unassigned; (+)) [Example 247, (+)-2-(2-fluorophenyl)-5-morpholino-1,3,4,5-tetrahydrobenz[cd]indole hydrochloride]",Pyramidal cell count in hippocampus CA1,[6]; 2.5 mg/kg,96 ± 31 cells/mm
same,Pyramidal cell count in hippocampus CA1,[6]; [7],83 ± 35 cells/mm
"Cl.Fc1ccccc1-c1[nH]c2cccc3c2c1CCC3N1CCOCC1 (single isomer, unassigned; (-)) [Example 248, (-)-2-(2-fluorophenyl)-5-morpholino-1,3,4,5-tetrahydrobenz[cd]indole hydrochloride]",Pyramidal cell count in hippocampus CA1,[6]; 2.5 mg/kg,87 ± 29 cells/mm
same,Pyramidal cell count in hippocampus CA1,[6]; [7],206 ± 14 cells/mm
"Cl.Cn1c(-c2ccccc2)c2c3c(cccc31)C(N1CCOCC1)CC2 (stereo not shown) [Example 237, 1-methyl-5-morpholino-2-phenyl-1,3,4,5-tetrahydrobenz[cd]indole hydrochloride]","Suppression of pain reaction, Second phase",[5]; 100 mg/kg,97%
same,"Suppression of pain reaction, First phase",[5]; 100 mg/kg,63%
Cc1ccc(-c2nc(C)c(CN3CCN(C(c4ccccc4)c4ccccc4)CC3)[nH]2)cc1 [lifarizine],effectiveness in cerebral ischemic animal models (in words),[1],effective
"CC(C)=CCN1CCC2(C)c3cc(O)ccc3CC1C2C (stereo not shown) [pentazocine, reference compound]",suppression of the first-phase pain reaction,"[5]; 10 mg/kg, subcutaneous",61%
same,suppression of the second-phase pain reaction,"[5]; 10 mg/kg, subcutaneous",40%
